Assay results as given in article PMC4669382 (mBio, 2015).

System: Bar1(D232A)
Assay: 60 nM Bar1
Details: C. albicans, 37°C, up to 90 min

Question: With GFRLTNFGYFEPG as the substance, how does the not cleaved read?
Answer: no detectable cleavage activity

System: S. cerevisiae Bar1
Assay: not given
Details: cited from earlier work

Question: For pepstatin A, which “sensitivity of S. cerevisiae Bar1 to inhibitor” value is on record?
Answer: insensitive

System: Bar1(D232A)
Assay: 127 nM Bar1
Details: C. albicans, 37°C, up to 1 h

Question: With GFRLTNFGYFEPG as the substance, how does the not cleaved read?
Answer: no cleavage products were generated

System: C. albicans Bar1
Assay: 127 nM C. albicans Bar1 in 50 µM potassium phosphate solution
Details: 37°C, up to 24 h

Question: Which not cleaved does the source give for GFRLTNFGAAEPG here?
Answer: no products were detected

Question: With GFRLTNFGYAAPG as the substance, how does the not cleaved read?
Answer: no products were detected

Question: With GFRLTNAAYFEPG as the substance, how does the cleaved bond read?
Answer: T5-N6, 1 h

Question: For GFRLTNFGYEAAG, which not cleaved is on record?
Answer: no products were detected

Question: Which cleaved bond does the source give for AARLTNFGYFEPG here?
Answer: T5-N6, 1 h

Question: Which cleaved bond does the source give for GFRLTNFAAFEPG here?
Answer: T5-N6, 1 h

Question: For GFRLTNFGYFEAA, which not cleaved is on record?
Answer: no products were detected

Question: With GFRLTNFGYFEPG as the substance, how does the cleaved bond read?
Answer: threonine5-asparagine6, major, 1 h

Question: Which cleaved bond does the source give for GFRLAAFGYFEPG here?
Answer: A5-A6, 1 h

Question: Which cleaved bond does the source give for KFKLTNFGYFEPG here?
Answer: Thr5-Asn6, 1 h

Question: For GAALTNFGYFEPG, which cleaved bond is on record?
Answer: T5-N6, 1 h

Question: Which cleaved bond does the source give for GFAATNFGYFEPG here?
Answer: T5-N6, 1 h

Question: For GFRAANFGYFEPG, which cleaved bond is on record?
Answer: A5-N6, 1 h

Question: For GFRLTAAGYFEPG, which cleaved bond is on record?
Answer: T5-A6, 1 h

System: C. albicans Bar1
Assay: Bar1 activity on bovine serum albumin
Type: biochemical, Candida albicans
Details: tested at high protein concentrations, data not shown

Question: For “bovine serum albumin: bovine serum albumin tested as a Bar1 substrate”, which “Bar1 activity on protein substrate” value is on record?
Answer: no detectable activity
